One may read the ED50 as the dose at which the effect has come halfway, by size or by number of responders.

This experiment relates to adjuvant-induced arthritis in rats. Briefly: Established adjuvant-induced arthritis in rats (paw volume of uninjected left hind paw). It is filed as in vivo, Charles River Lewis male rats. To be noted: for ED50: Rattus norvegicus, 168 h, read-out: ED50% Decrease From Control Paw Volume; for Percent Decrease From Control Paw Volume: rats, Student's t test. As for the experimental part: A procedure for detecting and comparing the antiinflammatory activity of compounds in this series and standard drugs for which there is a good correlation with human efficacy is the adjuvant-induced arthritis test in rats.
The test procedure employed for determining antiinflammatory activity is described below.
ESTABLISHED ADJUVANT-INDUCED ARTHRITIS IN RATS
Charles River Lewis male rats (130-150 grams) are injected subcutaneously in plantar area of the right hind paw with 0.1 ml of adjuvant (Difco heat-killed, lyophilized Mycobacterium butyricum suspended in mineral oil 5 mg/ml). 20 Non-arthritic controls are injected with mineral oil. The animals are held for 2 weeks to allow development of arthritis. Paw volumes (uninjected, left hind paw) are measured and the adjuvant injected rats are culled and distributed to treatment groups of 10 of equal disease severity. Non-arthritic controls are distributed to 2 groups of 10. The rats are given oral doses of compound or PVA-Acacia (Polyvinyl Alcohol 1%, Gum Acacia, U.S.P. 5%, Methylparaben 0.5%) (10 ml/kg) by gavage on that day and on the 6 following days. One day after the last dose the paw volumes (uninjected, left hind paw) are measured using a Ugo Basile Volume Differential Meter Model 7101. [formula]
Dose-response regression lines of the % decrease are plotted on semi-log paper by visual fit and the ED50% decrease from control paw volume is determined by inspection.

[1] abbreviates: oral gavage daily, 7 days, established adjuvant-induced arthritis, Lewis male rats, ED50% by inspection of dose-response regression lines.
[2] abbreviates: daily oral dose 27 mg/kg, 7 days, established adjuvant-induced arthritis, p < 0.1 (Ex. 2), p < 0.001 (Ex. 3) vs control.

Structures are written as SMILES. Read-outs that look alike come from different tables or passages of the source.

Consider `CC(=O)Oc1ccccc1C(=O)O` [Aspirin, reference compound], for which the ED50 (po) is 270 mg/kg.

Consider `OC(c1cc(-c2ccc(F)cc2)c(-c2ccc(F)cc2)s1)(C(F)(F)F)C(F)(F)F` [Example 1, 4,5-Bis(4-fluorophenyl)-α,α-bis(trifluoromethyl)-2-thiophenemethanol], for which the ED50 under setting [1] came to 10 mg/kg.

For the compound `OC(c1cc(-c2ccc(F)cc2)c(-c2ccc(F)cc2)s1)(C(F)(F)Cl)C(F)(Cl)Cl` (stereo not drawn) [Example 2], under setting [2], the “Percent Decrease From Control Paw Volume” value came to 20%.

On to `COc1ccc(-c2cc(C(O)(C(F)(F)F)C(F)(F)F)sc2-c2ccc(OC)cc2)cc1` [Example 3], for which, under setting [2], the “Percent Decrease From Control Paw Volume” value was 47%.

For the compound `COc1ccc(-c2cc(C(O)(C(F)(F)F)C(F)(F)F)sc2-c2ccc(SC)cc2)cc1` [Example 4, 4-(4-Methoxyphenyl)-5-(4-methylthiophenyl)-α,α-bis(trifluoromethyl)-2-thiophenemethanol], the ED50 under setting [1] is 10 mg/kg.

As to `OC(c1cc(-c2ccc(F)cc2)c(-c2ccc(Cl)cc2)s1)(C(F)(F)F)C(F)(F)F` [Example 5, 5-(4-Chlorophenyl)-4-(4-fluorophenyl)-α,α-bis(trifluoromethyl)-2-thiophenemethanol], the ED50 under setting [1] came to 9 mg/kg.

In the case of `OC(c1cc(-c2ccccc2)c(-c2ccccc2)s1)(C(F)(F)F)C(F)(F)F` [Example 6], the 50% effective dose (ED50) under setting [1] was determined as 21 mg/kg.

Consider `CC(O)(c1cc(-c2ccc(F)cc2)c(-c2ccc(F)cc2)s1)C(F)(F)F` (stereo not drawn) [Example 7, 4,5-Bis(4-fluorophenyl)-α-methyl-α-trifluoromethyl-2-thiophenemethanol], for which the ED50 under setting [1] amounted to 5.5 mg/kg.

As for `OC(c1cc(-c2ccc(F)cc2)c(-c2ccc(F)cc2)s1)(C(F)(F)Cl)C(F)(F)Cl` [Example 8, 4,5-Bis(4-fluorophenyl)-α,α-bis(chlorodifluoromethyl)-2-thiophenemethanol], under setting [1], the median effective dose (ED50) worked out at 4.5 mg/kg.

With `OC(c1cc(-c2ccc(F)cc2)c(-c2ccc(F)cc2)s1)(C(F)F)C(F)(F)F` (stereo not drawn) [Example 9], the ED50 under setting [1] amounted to 18 mg/kg.

As to `OC(c1cc(-c2ccc(F)cc2)c(-c2ccc(F)cc2)s1)(C(F)(F)F)C(F)(F)Cl` (stereo not drawn) [Example 10, 4,5-Bis(4-fluorophenyl)-α-chlorodifluoromethyl-α-trifluoromethyl-2-thiophenemethanol], the median effective dose (ED50) under setting [1] amounted to 6.8 mg/kg.

Regarding `Cc1c(C(O)(C(F)(F)Cl)C(F)(F)Cl)sc(-c2ccc(F)cc2)c1-c1ccc(F)cc1` [Example 27, 3-Methyl-4,5-bis(4-fluorophenyl)-α,α-bis(chlorodifluoromethyl)-2-thiophenemethanol], the ED50 under setting [1] was 12 mg/kg.

Regarding `CC(=O)OC(c1cc(-c2ccc(F)cc2)c(-c2ccc(F)cc2)s1)(C(F)(F)Cl)C(F)(F)Cl` [Example 29, 4,5-Bis(4-fluorophenyl)-α,α-bis(chlorodifluoromethyl)-2-thiophenemethanol, acetate], the “Percent Decrease From Control Paw Volume” value (daily oral dose 51 mg/kg, 7 days, established adjuvant-induced arthritis, p < 0.001 vs control) is 31%.

As to `COc1ccc2c(c1)c(CC(=O)O)c(C)n2C(=O)c1ccc(Cl)cc1` [Indomethacin, reference compound], the ED50 (po) was determined as 0.25 mg/kg.

With `CCCCC1C(=O)N(c2ccccc2)N(c2ccccc2)C1=O` [Phenylbutazone, reference compound], the ED50 under setting [1] came to 10 mg/kg.
